Broadly, the % Inhibition is the percentage by which the read-out fell short of the control.

Molecules are shown by their SMILES. pIC50: −log10 of the molar value. Entries after “also recorded” stand apart in the source; their conditions may differ.

This is an account of results in patent US4642347A, “3(2-quinolinylalkoxy)phenols” (American Home Products Corporation, priority 1985, dated 1987).

The subject of assay [1] is ovalbumin-induced bronchoconstriction. The assay can be described thus: In vivo inhibition of ovalbumin-induced (anaphylactic) bronchoconstriction by endogenous mediators in sensitized guinea pigs. Particulars: 50 mg/kg intraduodenally, 10 minutes before i.v. ovalbumin challenge; for % Inhibition: compared to its control (*P < 0.05; ***P < 0.005). Also on record: species or system guinea pig (Hartley). Here is the method: The assay of this Example measures the in vivo ability of the compounds of the invention to inhibit the bronchospasm induced in guinea pigs by endogenous mediators of the bronchoconstriction.
(§1) The assay is carried out as follows:
Male Hartley strain guinea pigs weighing 250-350 g are sensitized to chicken ovalbumin (OA) (10 mg i.p.) on days 1 and 3 and used starting on day 26. The animals are anesthetized with pentobarbital sodium (50 mg/kg, i.p.), bilateral vagotomy is performed, and the jugular vein is cannulated for injection of drugs and the carotid artery for monitoring blood pressure. The trachea is cannulated for artificial ventilation by miniature Starling pump and for indirect measurement of respiratory volume changes as described, infra. Succinylcholine (2 mg/kg, i.v.) is administered to arrest spontaneous respiration. A cyclooxygenase inhibitor, indomethacin (10 mg/kg in tris buffer, i.v. at 9 min.) is administered to shunt arachidonic metabolism to lipoxygenase pathways. One minute later, chlorpheniramine (1.0 mg/kg in saline, i.v.) is given to attenuate the histaminic component of anaphylactic bronchoconstriction. Test drugs (dissolved in propylene glycol, polyethylene glycol or saline) are administered either intraduodenally or by aerosol at 2 or 10 minutes before antigen challenge. Anaphylactic bronchoconstriction is induced by administration by breaths of aerosolized OA (1%) or by intravenous administration of 0.1-0.3 mg/kg OA in saline. Control animals receive solvent (2 ml/kg i.d. or appropriate aerosol) in place of drug.
Respiratory volume changes are determined by a calibrated piston whose travel is recorded, via a linear transducer, on a Beckman Dynograph recorder. Maximal bronchoconstrictor volume is determined by clamping off the trachea at the end of the experiment. Overflow volumes at minutes 1, 3 and 5 are obtained from the recorded charts.
Area under the volume overflow curve (AUC) is estimated, using the overflow values at 1, 3 and 5 minutes, and expressed as a percentage of the maximal overflow AUC (equation 1): [formula] Drug effects are reported as percent inhibition of % max AUC values obtained from appropriate control animals (equation 2): [formula] Students t-test for unpaired data is used to determine statistical significance.

For assay [2], the system named is leukotrienes C4 and/or D4 induced bronchospasm. The assay is described as follows: In vivo inhibition of bronchospasm induced in guinea pigs by exogenously administered leukotrienes C4 and/or D4. Also on record: species or system guinea pig (Hartley). Particulars: for % Maximal Bronchoconstriction / % Inhibition: 10 minutes before induction of bronchospasm; for % Inhibition: compared to its control (*P < 0.05; ***P < 0.001); for leukotriene antagonism (in words): summary of guinea pig results.

In assay [3] the test system is PGE2 synthesis (cyclooxygenase). The assay is described as follows: Inhibition of synthesis of PGE2 by rat polymorphonuclear leukocytes. In kind it is cell-based, rat (Wistar). Particulars: for pIC50: Leukocyte, PGE2, read-out: 50% Inhibitory Concentration (IC50), Inhibition of Synthesis of PGE2; for pIC50 / influence on the synthesis of PGE2 (in words): rat PMN; for cyclooxygenase inhibitory activity (in words): conclusion from TxB2 and PGE2 results. As to the method:
(§2) Peritoneal PMN are obtained from female Wistar rats (150-250 g) that received an i.p. injection of 6% glycogen (10 ml). After 24 hours, rats are killed by CO2 asphyxiation and peritoneal cells are harvested by peritoneal lavage using Ca^++ and Mg^++ free Hanks' balanced salt solution (HBSS). The peritoneal exudate is centrifuged at 400 g for 10 minutes. After centrifugation, the lavaged fluid is removed and the cell pellet is resuspended in HBSS containing Ca^++ and Mg^++ and 10 mM L-cysteine at a concentration of 2×10^7 cells/ml. To 1 ml portions of cell suspension, test drugs or vehicle are added and incubated at 37° C. for 10 minutes. Following this preincubation, the calcium ionophore (10 μM), A23187, is added together with 0.5 μCi [^14 C] arachidonic acid and further incubated for 10 minutes. The reaction is stopped by the addition of ice cold water (3 ml) and acidifying to pH 3.5. Lipoxygenase products are then extracted twice into diethyl ether. The pooled ether extracts are evaporated to dryness under nitrogen and the residue is redissolved in a small volume of methanol and spotted on aluminum backed pre-coated thin layer chromatographic plates. The samples are then co-chromatographed with authentic reference 5-HETE in the solvent system--hexane:ether:acetic acid (50:50:3). After chromatography, the areas associated with 5-HETE standard are identified by autoradiography, cut out and quantitated by liquid scintillation.
(§3) The procedure of Example 2 is also employed for the determination of the ability of the compounds of the invention to inhibit the synthesis of the arachidonic acid cyclooxygenase oxidation products TxB2 and PGE2.
In this assay, the procedure of Example 2 is carried out as described. However, in order to determine cyclooxygenase activity, the samples are cochromatographed with authentic reference TxB2 and PGE2 in the solvent system ethyl acetate:formic acid (80:1) and the upper phase of ethyl acetate:isoctane:acetic acid:water (110:50:20:100). After chromatography, the areas associated with TxB2 and PGE2 standards are identified by autoradiography, cut out and quantitated by liquid scintillation techniques.
(§4) The results are calculated as in Example 2 and presented below.

The subject of assay [4] is 5-HETE synthesis by rat glycogen-elicited polymorphonuclear leukocytes (5-lipoxygenase). The assay can be described thus: Inhibition of 5-HETE synthesis by rat glycogen-elicited polymorphonuclear leukocytes (A23187, [14C] arachidonic acid). In kind it is cell-based, rat (Wistar). To be noted: for pIC50: Leukocyte, rat peritoneal PMN, 5-HETE synthesis, read-out: 50% Inhibitory Concentration (IC50), 5-HETE. Here is the method:
This is especially true with respect to 5,12-diHETE, which is also denoted as LTB4 [see Ford-Hitchinson, J. Roy. Soc. Med., 74, 831 (1981)]. The assay of this Example measures the ability of the compounds of the invention to inhibit the synthesis of 5-HETE and LTB4 by rat glycogen-elicited polymorphonuclear leukocytes.
as §1, §2
Results are expressed as % inhibition of [^14 C]5-HETE synthesis. [formula]

Assay [5] relates to TxB2 synthesis (cyclooxygenase). The assay can be described thus: Inhibition of synthesis of TxB2 by rat polymorphonuclear leukocytes. Particulars: for pIC50: Leukocyte, rat PMN, TxB2, read-out: % Inhibitory Concentration (IC50), Inhibition of Synthesis of TxB2. In kind it is cell-based, rat (Wistar). As to the method: as §2, §3
In this assay, the procedure of Example 2 is carried out as described. […] After chromatography, the areas associated with TxB2 and PGE2 standards are identified by autoradiography, cut out and quantitated by liquid scintillation techniques.
as §4

Regarding `Oc1cccc(OCc2ccc3ccccc3n2)c1` [Example 1, 3-(2-Quinolinylmethoxyl)phenol], the “% Maximal Bronchoconstriction” value is 21 ± 8% in assay [1] and 10 ± 1% in assay [2] (50 mg/kg intraduodenally). The “% Inhibition” value was determined as 53% in assay [1] and 82% in assay [2] (50 mg/kg intraduodenally). Also, the “leukotriene antagonism (in words)” value in assay [2] was “potent leukotriene antagonist”. The “potency as inhibitor of LTD4-induced bronchoconstriction relative to the prior art compound” value in assay [2] (times more potent than the prior art compound, 50 mg/kg intraduodenally) is “approximately three”. Also, the pIC50 in assay [3] was < 4.00; in assay [4], 5.22; in assay [5], 4.84. Further, the “cyclooxygenase inhibitory activity (in words)” value in assay [3] was “little or no significant cyclooxygenase inhibitory activity”. In assay [3], the “influence on the synthesis of PGE2 (in words)” value is listed as “failure”. The “5-lipoxygenase inhibition (in words)” value in assay [4] (conclusion from Example 2) was “very potent 5-lipoxygenase inhibitor; also recorded: significant 5-lipoxygenase inhibition; also recorded: strong inhibitor of 5-lipoxygenase”. For the same compound, the “potency in inhibiting the synthesis of 5-HETE relative to the prior art compound” value in assay [4] (rat peritoneal neutrophils, more potent than the prior art compound) is “approximately an order of magnitude more potent”.

`Oc1ccccc1OCc1ccc2ccccc2n1` [2-(2-quinolinylmethoxy)phenol, reference compound]: the “% Maximal Bronchoconstriction” value in assay [1] turned out to be 31 ± 6%; in assay [2] (50 mg/kg intraduodenally), 43 ± 6%. Moreover, the “% Inhibition” value was 47% in assay [1] and 28% in assay [2] (50 mg/kg intraduodenally). The “leukotriene antagonism (in words)” value in assay [2] is “ability to block leukotriene responses”. Besides, the pIC50 in assay [3] was 5.24; in assay [4] it was 4.28; in assay [5] it was 5.17. Also, the “cyclooxygenase inhibitory activity (in words)” value in assay [3] was “potent activity as a cyclooxygenase inhibitor”. Further, the “influence on the synthesis of PGE2 (in words)” value in assay [3] is “quite significantly active”. Further, in assay [5] (as potent as the compound of Example 1), the “potency in inhibiting TxB2 synthesis relative to the compound of Example 1” value is “twice as potent”.
